Assay results reported in patent EP0235259B1, “NOVEL TRANSDERMAL ANTI-ANGINAL PHARMACEUTICAL DOSAGE UNIT AND PROCESS FOR ITS ADMINISTRATION” (RUTGERS, THE STATE UNIVERSITY OF NEW JERSEY, priority 1985, dated 1987).
Where two headings read alike, the source gives them in different places.

Tested on: skin from a "hairless" mouse or human cadaver
Assay: transdermal absorption (skin permeation) of nitroglycerin from polymer matrix dosage units, procedure of Keshary and Chien
Conditions: for Enhancement Factor: Table XIV, 15% W/W nitroglycerin in DC-382 matrix
Excerpt: Enhancing Factor is defined as the ratio of normalized permeation rate [in mcg/cm²/hr] of a dosage unit of this invention with skin permeation enhancer/the normalized permeation rate of a corresponding dosage unit without enhancer in the adhesive layer.
Pharm., 10 (6) 883-913(1984).

Skin Permeation Rate Without [mcg/cm²/hr]	Enhancing Factor (0.8 mg/cm²)	Enhancing Factor (1.59 mg/cm²)	Enhancing Factor (3.18 mg/cm²)	Compound	other results
34.1 ± 1.62	–	–	–	CCCCCCCCCCCCCC(=O)OCC(O)COC(=O)CCCCCCCCCCCCC (racemic) [1,3-Dimyristoyl-RAC-Glycerol]	Enhancing Factor (1.6 mg/cm²): 0.94; Skin Permeation Rate With (1.6 mg/cm²): 32.13 ± 6.94 mcg/cm²/hr
34.1 ± 1.62	–	–	–	CCCCCCCCCCCCCC(=O)OCC(O)CO (racemic) [1-Monomyristoly-RAC-Glycerol]	Skin Permeation Rate With: 29.88 ± 3.84 mcg/cm²/hr
34.1 ± 1.62	–	–	–	CCCCCCCCCCCCCCCC(=O)OCC(O)CO (racemic) [1-Monopalmitoyl-RAC-Glycerol]	Enhancing Factor (1.6 mg/cm²): 0.86; Skin Permeation Rate With (1.6 mg/cm²): 29.39 ± 1.76 mcg/cm²/hr
–	1.67	1.92	3.07	CCCCCCCCCCCCCC(=O)OCCC [Enhancer C, Propyl myristate]	Enhancing Factor (4.78 mg/cm²): 3.41
–	1.22	2.43	3.08	CCCCCCCC/C=C\CCCCCCCC(=O)OCCC [Enhancer D, Propyl oleate]	Enhancing Factor (4.78 mg/cm²): 3.78
–	1.69	2.82	2.65	CCCCCCCC/C=C\CCCCCCCCO [Enhancer E, Oleyl alcohol]	–
–	1.3	2.0	1.6	CCCCCCCCCCCCCC(=O)N(C)C [Enhancer H, Myristic acid, N,N-dimethylamide]	Enhancing Factor (4.78 mg/cm²): 1.5

Further lines, the molecule ahead of its results:

Compound	Skin Permeation Rate Without [mcg/cm²/hr]	Enhancing Factor (0.8 mg/cm²)	Enhancing Factor (1.59 mg/cm²)	Enhancing Factor (3.18 mg/cm²)	other results
CCCCCCCCCCCCCC(=O)OCC(CO)OC(=O)CCCCCCCCCCCCC (racemic) [1,2-Dimyristoyl-RAC-Glycerol]	39.4 ± 4.32	–	–	–	Enhancing Factor (1.6 mg/cm²): 1.03; Skin Permeation Rate With (1.6 mg/cm²): 40.64 ± 4.27 mcg/cm²/hr
CCCCCCCCCC(=O)O [Enhancer B, Decanoic acid]	–	2.59	4.11	4.41	–
CCCCCCCCCC[S+](C)[O-] (centres unmarked) [Enhancer G, Decylmethyl sulfoxide]	–	1.61	1.87	–	Enhancing Factor (2.4 mg/cm²): 2.02; Enhancing Factor (5 mg/cm²): 1.36; Enhancing Factor (10 mg/cm²): 1.22
O=[N+]([O-])OCC(CO[N+](=O)[O-])O[N+](=O)[O-] [NITROGLYCERIN, nitroglycerin, reference compound]	–	–	–	–	Enhancement Factor (enhancers (mg/cm²): (+) menthol 0.8 + capric acid 0.8 + Methyl Salicylate 0.8): 3.36; Enhancement Factor (enhancers (mg/cm²): (+) menthol 0.8 + capric acid 0.8 + Oleyl alcohol 0.8): 5.29; Enhancement Factor (enhancers (mg/cm²): (+) menthol 0.8 + capric acid 0.8 + Oleyl alcohol 1.6): 4.61; Enhancement Factor (enhancers (mg/cm²): (+) menthol 0.8 + capric acid 0.8 + Salicylic acid 0.8): 3.47
